Where a SMILES comes first, the peptide text is derived from it. Bridges are numbered along the chain shown (N, C = ends). Roman numbers before positions name the chains, in order.
Experiments:
hα9α10 nAChR = hα9α10 nAChR (Homo sapiens, UniProt Q9GZZ6+Q9UGM1); assay: cell-based; assay type: cell-based
hα3β2 nAChR = assay type: cell-based, human
hα4β2 nAChR = assay type: cell-based, human
hα3β4 nAChR = assay type: cell-based, human
hα4β4 nAChR = assay type: cell-based, human
hα7 nAChR = assay type: cell-based, human
nAChR subtypes = assay type: cell-based, human; rodent

Sequence of hα9α10 nAChR (Q9UGM1 26-479 limits assumed): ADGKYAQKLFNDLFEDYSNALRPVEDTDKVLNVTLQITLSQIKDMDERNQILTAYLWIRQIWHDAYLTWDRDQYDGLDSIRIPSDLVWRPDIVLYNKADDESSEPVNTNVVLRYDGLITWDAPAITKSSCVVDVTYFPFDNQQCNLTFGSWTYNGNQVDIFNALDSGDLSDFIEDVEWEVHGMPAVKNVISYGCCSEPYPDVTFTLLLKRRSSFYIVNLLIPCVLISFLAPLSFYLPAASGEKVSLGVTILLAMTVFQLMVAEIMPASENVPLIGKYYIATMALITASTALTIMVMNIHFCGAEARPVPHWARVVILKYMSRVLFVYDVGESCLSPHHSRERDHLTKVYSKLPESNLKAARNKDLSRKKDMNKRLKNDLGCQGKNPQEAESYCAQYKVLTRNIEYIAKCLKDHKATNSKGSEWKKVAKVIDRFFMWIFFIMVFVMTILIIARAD
Sequence of hα9α10 nAChR (Q9GZZ6 25-450 limits assumed): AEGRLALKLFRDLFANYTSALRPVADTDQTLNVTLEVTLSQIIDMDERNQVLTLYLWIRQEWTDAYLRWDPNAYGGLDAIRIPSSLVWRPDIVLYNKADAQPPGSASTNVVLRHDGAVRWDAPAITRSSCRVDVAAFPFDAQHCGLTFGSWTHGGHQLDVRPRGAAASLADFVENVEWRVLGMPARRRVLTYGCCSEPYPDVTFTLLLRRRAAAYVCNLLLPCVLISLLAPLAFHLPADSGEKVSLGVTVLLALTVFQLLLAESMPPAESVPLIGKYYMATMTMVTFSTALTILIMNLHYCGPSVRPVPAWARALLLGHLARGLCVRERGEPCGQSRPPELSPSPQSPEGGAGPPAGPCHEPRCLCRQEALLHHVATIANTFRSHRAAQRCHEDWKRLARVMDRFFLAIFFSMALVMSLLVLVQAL

SMILES | Hill Slope (nH) at hα9α10 (hα9α10 nAChR) | reduction of ACh-evoked current amplitude at hα3β2 (hα3β2 nAChR) | reduction of ACh-evoked current amplitude at hα4β2 (hα4β2 nAChR) | effect on ACh-evoked currents of hα3β4 (hα3β4 nAChR) | effect on ACh-evoked currents of hα4β4 (hα4β4 nAChR) | effect on ACh-evoked currents of hα7 (hα7 nAChR) | nAChR subtype preference (nAChR subtypes) | IC50 (hα9α10 nAChR) [nM]
CC(C)C[C@H](NC(=O)[C@H](CO)NC(=O)[C@@H]1CSSC[C@H](NC(=O)[C@@H]2CCCN2C(=O)[C@H](CCCNC(=N)N)NC(=O)[C@H](Cc2c[nH]cn2)NC(=O)[C@@H](NC(=O)[C@@H](N)CC(=O)O)C(C)C)C(=O)N[C@@H](CCC(N)=O)C(=O)N[C@@H](CO)C(=O)N[C@@H](C(C)C)C(=O)N[C@@H](CCCNC(=N)N)C(=O)N2CCC[C@H]2C(=O)NCC(=O)N[C@@H](CCCNC(=N)N)C(=O)N[C@@H](C(C)C)C(=O)N[C@@H](Cc2c[nH]c3ccccc23)C(=O)NCC(=O)N[C@@H](CCCCN)C(=O)N[C@H](C(=O)N[C@@H](CO)C(=O)N[C@@H](CC(C)C)C(=O)O)CSSC[C@H](NC(=O)[C@@H]2CCCN2C(=O)[C@H](CCCNC(=N)N)NC(=O)[C@H](Cc2c[nH]cn2)NC(=O)[C@@H](NC(=O)[C@@H](N)CC(=O)O)C(C)C)C(=O)N[C@@H](CCC(N)=O)C(=O)N[C@@H](CO)C(=O)N[C@@H](C(C)C)C(=O)N[C@@H](CCCNC(=N)N)C(=O)N2CCC[C@H]2C(=O)NCC(=O)N[C@@H](CCCNC(=N)N)C(=O)N[C@@H](C(C)C)C(=O)N[C@@H](Cc2c[nH]c3ccccc23)C(=O)NCC(=O)N[C@@H](CCCCN)C(=O)N1)C(=O)O [NTD] (I: H-DVHRPCQSVRPGRVWGKCSL-OH / II: H-DVHRPCQSVRPGRVWGKCSL-OH; disulfide I:6-II:18, I:18-II:6) | −0.9 | approximately 50% | approximately 50% | not markedly affected | not markedly affected | not markedly affected | prefers β2-containing rather than β4-containing nAChR subtypes | –
CC(C)[C@@H]1NC(=O)[C@H](CCCNC(=N)N)NC(=O)CNC(=O)[C@@H]2CCCN2C(=O)[C@H](CCCNC(=N)N)NC(=O)[C@H](C(C)C)NC(=O)[C@H](CO)NC(=O)[C@H](CCC(N)=O)NC(=O)[C@@H](N)CSSC[C@@H](C(=O)O)NC(=O)[C@H](CCCCN)NC(=O)CNC(=O)[C@H](Cc2c[nH]c3ccccc23)NC(=O)[C@H](C(C)C)NC(=O)[C@H](CCCNC(=N)N)NC(=O)CNC(=O)[C@@H]2CCCN2C(=O)[C@H](CCCNC(=N)N)NC(=O)[C@H](C(C)C)NC(=O)[C@H](CO)NC(=O)[C@H](CCC(N)=O)NC(=O)[C@@H]2CCCN2C(=O)CNC(=O)[C@@H]2CCCN2C(=O)[C@H](CCCCN)NC(=O)CNC(=O)[C@H](Cc2c[nH]c3ccccc23)NC1=O [cNTD] (H-CQSVRPGRVWGKPGPQSVRPGRVWGKC-OH; disulfide 1-27) | – | – | – | – | – | – | – | 2660
